Columns and labels:
[1] = system: Lymphocyte; test: Immunosuppressive activity in mouse lymphocyte assessed as suppression of two-way mixed reaction; type: functional, cell-based
[2] = Toxicity in mouse lymphocytes; type: cell-based, Lymphocyte; settings: read-out: TC50 (the source's name)

| SMILES | EC50 [1] [nM] | CC50 [2] [nM] |
| --- | --- | --- |
| CCCC[C@@H](C)C[C@@H](C)C(=O)N(C)[C@@H](CC(C)C)C(=O)N[C@H](C(=O)N(C)[C@H](C(=O)N1C[C@@H](O)C[C@H]1C(=O)N1C(=O)C=C[C@@H]1C)C(C)C)[C@H](C)OC(C)=O [MICROCOLIN A] | 1.5 | 22.6 |
| CCCC[C@@H](C)C[C@@H](C)C(=O)N(C)[C@@H](CC(C)C)C(=O)N[C@H](C(=O)N(C)[C@H](C(=O)N1CCC[C@H]1C(=O)N1C(=O)C=C[C@@H]1C)C(C)C)[C@H](C)OC(C)=O [MICROCOLIN B] | 42.7 | 191 |
